Laboratory results as given in the supplement of paper PMC10307832.

How the values were obtained:
Experiment in all cases: relative viability (nuclei count vs DMSO), 5 days (fraction); higher = more cells survive
[1] = compound: CCn1c(-c2nonc2N)nc2c(C#CC(C)(C)O)ncc(OC[C@H]3CCCNC3)c21 + Nc1ncn([C@H]2C[C@H](O)[C@@H](CO)O2)c(=O)n1 [Decitabine] (partner 2 µM)
Procedure, shortened: (§1)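 For relative viability, nuclei counts in treated wells were divided by those in vehicle wells. Lung cancer cell lines had been pin-tool dosed in 1536-well plates the day after seeding and cultured for 5 days, then fixed and stained in one step (final 0.05% Triton X-100, 1% formaldehyde, 1 ug/ml Hoechst) and imaged at 4×. Doses were one drug alone or a fixed anchor-drug dose plus five library-drug doses (not always all listed) in √10 steps, and values are duplicate-plate medians.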

[2] = compound: CCn1c(-c2nonc2N)nc2c(C#CC(C)(C)O)ncc(OC[C@H]3CCCNC3)c21 + CC(=O)c1c(C)c2cnc(Nc3ccc(N4CCNCC4)cn3)nc2n(C2CCCC2)c1=O [Palbociclib] (partner 0.5 µM)
Procedure, shortened: as §1

[3] = compound: CCOC1=CC=CC=C1N=NC2=C(NN(C2=O)C3=NC(=CS3)C4=CC=CC=C4)C [BAM7] + C[C@]1(O)C[C@@H](c2nc(-c3ccc4ccc(-c5ccccc5)nc4c3)c3c(N)nccn32)C1 [Linsitinib] (partner 1 µM)
Procedure, shortened: as §1

[4] = compound: CCOC1=CC=CC=C1N=NC2=C(NN(C2=O)C3=NC(=CS3)C4=CC=CC=C4)C [BAM7] + C[C@@H](Oc1cc(-c2cnn(C3CCNCC3)c2)cnc1N)c1c(Cl)ccc(F)c1Cl [Crizotinib] (partner 1 µM)
Procedure, shortened: as §1

Cell Line: NCI-H3122
- relative viability ([1]; first compound 0.01 µM): 0.499
- relative viability ([1]; first compound 0.03162 µM): 0.364
- relative viability ([1]; first compound 0.1 µM): 0.427
- relative viability ([1]; first compound 0.3162 µM): 0.436
- relative viability ([1]; first compound 1 µM): 0.414
- relative viability ([2]; first compound 0.01 µM): 0.177
- relative viability ([2]; first compound 0.03162 µM): 0.18
- relative viability ([2]; first compound 0.1 µM): 0.176
- relative viability ([2]; first compound 0.3162 µM): 0.175
- relative viability ([2]; first compound 1 µM): 0.219
- relative viability ([3]; first compound 0.5 µM): 0.969
- relative viability ([3]; first compound 5 µM): 1.08
- relative viability ([3]; first compound 15.81 µM): 1
- relative viability ([3]; first compound 50 µM): 1.02
- relative viability ([4]; first compound 0.5 µM): 0.282
- relative viability ([4]; first compound 5 µM): 0.378
- relative viability ([4]; first compound 15.81 µM): 0.33
- relative viability ([4]; first compound 50 µM): 0.312

Cell Line: PC-3 [JPC-3]
- relative viability ([1]; first compound 0.01 µM): 0.832
- relative viability ([1]; first compound 0.1 µM): 0.836
- relative viability ([1]; first compound 0.3162 µM): 0.769
- relative viability ([1]; first compound 1 µM): 0.78
- relative viability ([2]; first compound 0.01 µM): 0.529
- relative viability ([2]; first compound 0.1 µM): 0.556
- relative viability ([2]; first compound 0.3162 µM): 0.557
- relative viability ([2]; first compound 1 µM): 0.531
- relative viability ([3]; first compound 0.5 µM): 0.905
- relative viability ([3]; first compound 5 µM): 0.966
- relative viability ([3]; first compound 15.81 µM): 0.868
- relative viability ([3]; first compound 50 µM): 0.835
- relative viability ([4]; first compound 0.5 µM): 0.913
- relative viability ([4]; first compound 5 µM): 0.942
- relative viability ([4]; first compound 15.81 µM): 0.784
- relative viability ([4]; first compound 50 µM): 0.827

Cell Line: PC-14
- relative viability ([1]; first compound 0.01 µM): 0.25
- relative viability ([1]; first compound 0.03162 µM): 0.2
- relative viability ([1]; first compound 0.1 µM): 0.222
- relative viability ([1]; first compound 0.3162 µM): 0.197
- relative viability ([1]; first compound 1 µM): 0.29
- relative viability ([2]; first compound 0.01 µM): 0.581
- relative viability ([2]; first compound 0.03162 µM): 0.543
- relative viability ([2]; first compound 0.1 µM): 0.542
- relative viability ([2]; first compound 0.3162 µM): 0.476
- relative viability ([2]; first compound 1 µM): 0.516
- relative viability ([3]; first compound 0.5 µM): 0.984
- relative viability ([3]; first compound 5 µM): 1.04
- relative viability ([3]; first compound 15.81 µM): 0.953
- relative viability ([3]; first compound 50 µM): 0.975
- relative viability ([4]; first compound 0.5 µM): 1.07
- relative viability ([4]; first compound 5 µM): 0.99
- relative viability ([4]; first compound 15.81 µM): 0.805
- relative viability ([4]; first compound 50 µM): 0.859

Cell Line: RERF-LC-KJ
- relative viability ([1]; first compound 0.01 µM): 0.694
- relative viability ([1]; first compound 0.03162 µM): 0.643
- relative viability ([1]; first compound 0.1 µM): 0.684
- relative viability ([1]; first compound 0.3162 µM): 0.59
- relative viability ([1]; first compound 1 µM): 0.656
- relative viability ([2]; first compound 0.01 µM): 1.02
- relative viability ([2]; first compound 0.03162 µM): 1.06
- relative viability ([2]; first compound 0.1 µM): 1.02
- relative viability ([2]; first compound 0.3162 µM): 0.915
- relative viability ([2]; first compound 1 µM): 1.05
- relative viability ([3]; first compound 0.5 µM): 0.862
- relative viability ([3]; first compound 5 µM): 0.775
- relative viability ([3]; first compound 15.81 µM): 0.833
- relative viability ([3]; first compound 50 µM): 0.929
- relative viability ([4]; first compound 0.5 µM): 0.834
- relative viability ([4]; first compound 5 µM): 0.786
- relative viability ([4]; first compound 15.81 µM): 0.78
- relative viability ([4]; first compound 50 µM): 0.793

Cell Line: SK-LU-1
- relative viability ([1]; first compound 0.01 µM): 0.669
- relative viability ([1]; first compound 0.03162 µM): 0.639
- relative viability ([1]; first compound 0.1 µM): 0.75
- relative viability ([1]; first compound 0.3162 µM): 0.611
- relative viability ([1]; first compound 1 µM): 0.574
- relative viability ([2]; first compound 0.01 µM): 0.405
- relative viability ([2]; first compound 0.03162 µM): 0.455
- relative viability ([2]; first compound 0.1 µM): 0.323
- relative viability ([2]; first compound 0.3162 µM): 0.414
- relative viability ([2]; first compound 1 µM): 0.39
- relative viability ([3]; first compound 0.5 µM): 0.969
- relative viability ([3]; first compound 5 µM): 1.21
- relative viability ([3]; first compound 15.81 µM): 1.22
- relative viability ([3]; first compound 50 µM): 1.21
- relative viability ([4]; first compound 0.5 µM): 0.785
- relative viability ([4]; first compound 5 µM): 1.05
- relative viability ([4]; first compound 15.81 µM): 0.903
- relative viability ([4]; first compound 50 µM): 0.866

Cell Line: SK-MES-1
- relative viability ([1]; first compound 0.01 µM): 0.329
- relative viability ([1]; first compound 0.03162 µM): 0.397
- relative viability ([1]; first compound 0.1 µM): 0.399
- relative viability ([1]; first compound 0.3162 µM): 0.353
- relative viability ([1]; first compound 1 µM): 0.378
- relative viability ([2]; first compound 0.01 µM): 0.306
- relative viability ([2]; first compound 0.03162 µM): 0.298
- relative viability ([2]; first compound 0.1 µM): 0.299
- relative viability ([2]; first compound 0.3162 µM): 0.318
- relative viability ([2]; first compound 1 µM): 0.308
- relative viability ([3]; first compound 0.5 µM): 1.11
- relative viability ([3]; first compound 5 µM): 1.05
- relative viability ([3]; first compound 15.81 µM): 1.03
- relative viability ([3]; first compound 50 µM): 1.07
- relative viability ([4]; first compound 0.5 µM): 1.05
- relative viability ([4]; first compound 5 µM): 1.01
- relative viability ([4]; first compound 15.81 µM): 0.961
- relative viability ([4]; first compound 50 µM): 1.04

Cell Line: SW 1573
- relative viability ([1]; first compound 0.01 µM): 0.462
- relative viability ([1]; first compound 0.03162 µM): 0.388
- relative viability ([1]; first compound 0.1 µM): 0.448
- relative viability ([1]; first compound 0.3162 µM): 0.42
- relative viability ([1]; first compound 1 µM): 0.337
- relative viability ([2]; first compound 0.01 µM): 0.334
- relative viability ([2]; first compound 0.03162 µM): 0.402
- relative viability ([2]; first compound 0.1 µM): 0.326
- relative viability ([2]; first compound 0.3162 µM): 0.241
- relative viability ([2]; first compound 1 µM): 0.215
- relative viability ([3]; first compound 0.5 µM): 0.838
- relative viability ([3]; first compound 5 µM): 0.742
- relative viability ([3]; first compound 15.81 µM): 0.819
- relative viability ([3]; first compound 50 µM): 0.896
- relative viability ([4]; first compound 0.5 µM): 0.974
- relative viability ([4]; first compound 5 µM): 0.962
- relative viability ([4]; first compound 15.81 µM): 0.778
- relative viability ([4]; first compound 50 µM): 0.8
